Reference: US4476128A, “2-Substituted thiazolyl-piperazine compounds, process for preparation thereof and utilizations thereof _” (Mitsuitoatsu Chemicals, Inc., priority 1980, dated 1984)
Structures can show the parent of a compound that is named as a salt.

Tests used:
[1] = tested on: adjuvant arthritis caused by Mycobacterium tuberculosis adjuvant; assay: Adjuvant Arthritis Test; assay type: in vivo, SD male rats; conditions: 5 mg/Kg subcutaneous, 9 times, left hind leg, * P<0.05, ** P<0.01
Procedure: The adjuvant arthritis in rats caused by injection of a Mycobacterium tuberculosis adjuvant is often utilized for a model test of chronic rheumatoid arthritis in men.
The mechanism of manifestation of this disease has not completely been elucidated, but it is known that the cellular immunity takes an important role. The immunopotentiative action of the compound of the present invention was tested according to this known adjuvant arthritis test.
A group of ten 9-weeks-old SD male rats were used for the test. In 0.1 ml of fluid paraffin, 0.4 mg of dry dead cells of Mycobacterium tuberculosis were suspended, and the suspension was injected under the heel skin of the right hind leg. The compound of the present invention was subcutaneously administered 9 times as a whole before and after injection of the adjuvant. The test compound was dissolved in a physiological saline and administered at a dose of 5 mg per Kg of the body weight. The swelling volume of the left hind leg as measured during the period of from the day of injection to the day of completion of the test, and the swelling ratio was calculated. For comparison, the test was similarly conducted by using Levamisole hydrochloride. F.t tests were carried out on the obtained test results. The group in which the test result was significant at a level of P<0.05 was marked by *, and the group in which the test result was significant at a level of P<0.01 was marked by **.

Sarcoma 180 [2] = assay: Test of Antitumor Effect to Sarcoma 180 by Oral Administration; assay type: in vivo, ICR female mice; conditions: for D: average diameter (mm) of tumor, 2 weeks / D: average diameter (mm) of tumor, 4 weeks / D: average diameter (mm) of tumor, 6 weeks / D: average diameter (mm) of tumor, 8 weeks / D: average diameter (mm) of tumor, 10 weeks: 100 mg/Kg oral once a day, 10 days; for N: number of living mice, 0 weeks / N: number of living mice, 2 weeks / N: number of living mice, 4 weeks / N: number of living mice, 6 weeks / N: number of living mice, 8 weeks / N: number of living mice, 10 weeks: group of 6
Procedure: To the control group, a physiological saline was similarly administered. The dose of the compound was 100 mg per Kg of the body weight. The diameter D (mm) of the tumor was measured, and the average value and the number N of the living mice were determined to obtain results shown in Table 4.

[3] = tested on: delayed hypersensitivity induced by picryl chloride; assay: Test of Reinforcement of Delayed Hypersensitivity (picryl chloride, mouse ear thickness); assay type: in vivo, ICR male mice; conditions: 50 mg/Kg oral, simultaneously with sensitization; 24 hours after challenge; * P<0.05, ** P<0.01
Text: Various test systems using animals have been proposed for determining the immunopotentiative action. Results of the test of reinforcement of the delayed hypersensitivity, which is a typical test among these tests, will now be described.
This system was used for the test of reinforcement of the delayed hypersensitivity.
One group of eight ICR male mice, each having a body weight of about 30 g, was used for the test.
Sensitization was effected by coating a 7% solution of picryl chloride in a 4/1 mixture of olive oil and acetone on the shaved abdomen of the mouse.
Simultaneously with sensitization, a solution or suspension of the compound of the present invention in a 0.2% solution of carboxymethyl cellulose in a physiological saline was orally administered to the mouse at a dose of 50 mg per Kg of the body weight. To the control group, a 0.2% carboxymethyl cellulose solution in a physiological saline was similarly administered.
The delayed hypersensitivity was challenged 7 days after sensitization by gripping the ear of the mouse by a forceps wrapped with a felt impregnated with a 1% solution of picryl chloride in olive oil and coating the ear with the solution. The thickness of the ear was measured before challenging and 24 hours after challenging and the ratio of increase of the thickness (average value of both the ears in eight mice±standard deviation) was obtained as shown in Table 1.
For comparison, the test was similarly carried out by using Levamisole hydrochloride, and the obtained results are shown in Table 1. F.t tests were carried out. The group in which the test result was significant at a level of P<0.05 was marked by *, and the group in which the test result was significant at a level of P<0.01 was marked by **.

EL-4 leukemic cells = assay: In-Vitro Test of Inhibition of Growth of Cancer Cell by Macrophage (3H-thymidine take-in); assay type: cell-based, C57 BL/6J mouse (EL-4 cells); ddY female mice (macrophages); conditions: 8 mg/Kg intraperitoneal; for Take-in Ratio (average value, %): macrophages collected after 4 days, 3H-thymidine incorporated into EL-4 cells; for inhibition of take-in of 3H-thymidine by EL-4 cells / macrophage activation (in words): hydrochloride
Procedure: The results of the test of the action of the effective ingredient of the present invention on the macrophage will now be described with reference to the following Test 3. More specifically, the separated macrophage and EL-4 leukemic cell were mixed and cultured, and ^3 H-thymidine was added to a culture medium and the quantity of ^3 H-thymidine incorporated into the EL-4 cell was determined to examine the activity of the macrophage. When the macrophage is activated by administration of the effective ingredient of the present invention, inhibition of the growth of EL-4 cell, that is, phagocytosis of the cancer cell by the macrophage, is observed. Accordingly, if the take-in amount of ^3 H-thymidine is measured and this amount is reduced, it is confirmed that the macrophage has been activated. Test Procedures: […] The dose was 8 mg per Kg of the body weight. To the control group, a physiological saline was similarly administered. After passage of 4 days, exuded abdominal cells were collected and deposited on a plastic Petri dish to collect macrophages. […] Then, 0.1 μCi of ^3 H-thymidine was added and culturing was further conducted for 16 hours. Cells were collected on a filter paper from the culture medium and the amount of ^3 H-thymidine incorporated in was determined by a liquid scintillation counter.

[4] = Test of Acute Toxicity by Oral Administration; assay type: in vivo, ddY male mice; conditions: mice, after 7 days
Procedure: A solution or suspension of the compound in a physiological saline was orally administered to one group of three ddY male mice, and after 7 days, the estimated LD50 value was determined.

Sarcoma 180 [5] = assay: Test of Antitumor Effect to Sarcoma 180 by Subcutaneous Administration; assay type: in vivo, ICR female mice; conditions: 20 mg/Kg subcutaneous
Procedure: To the control group, a physiological saline was similarly administered. […] The diameter D (mm) of the tumor was measured, and the average value and the number N of the living mice were determined to obtain results shown in Table 4.

Row | SMILES | Swelling Ratio (average value ± standard variation, %), 15 days [1] | Swelling Ratio (average value ± standard variation, %), 18 days [1] | Swelling Ratio (average value ± standard variation, %), 21 days [1] | D: average diameter (mm) of tumor, 2 weeks (Sarcoma 180 [2]) | D: average diameter (mm) of tumor, 4 weeks (Sarcoma 180 [2]) | D: average diameter (mm) of tumor, 6 weeks (Sarcoma 180 [2]) | D: average diameter (mm) of tumor, 8 weeks (Sarcoma 180 [2]) | D: average diameter (mm) of tumor, 10 weeks (Sarcoma 180 [2]) | N: number of living mice, 0 weeks (Sarcoma 180 [2]; 100 mg/Kg oral) | N: number of living mice, 2 weeks (Sarcoma 180 [2]; 100 mg/Kg oral) | N: number of living mice, 4 weeks (Sarcoma 180 [2]; 100 mg/Kg oral) | N: number of living mice, 6 weeks (Sarcoma 180 [2]; 100 mg/Kg oral) | N: number of living mice, 8 weeks (Sarcoma 180 [2]; 100 mg/Kg oral) | N: number of living mice, 10 weeks (Sarcoma 180 [2]; 100 mg/Kg oral) | Ratio of Increase of Ear Thickness (average value ± standard variation, %) [3] | Take-in Ratio (average value, %) (EL-4 leukemic cells) | other results
1 | CCN(CC)C(=O)N1CCN(c2nccs2)CC1 [drawing 11] | 60.9 ± 8.0% | 59.8 ± 7.8% | 50.5 ± 10.0% | – | – | – | – | – | – | – | – | – | – | – | – | – | –
2 | CCN(CC)C(=O)N1CCN(c2nccs2)CC1 [drawing 15] | – | – | – | 8.6 mm | 7.5 mm | 6.7 mm | 7.7 mm | 0 mm | 6 | 6 | 6 | 6 | 6 | 6 | – | – | –
3 | CCN(CC)C(=O)N1CCN(c2nc(-c3ccccc3)cs2)CC1 [drawing 8] | – | – | – | – | – | – | – | – | – | – | – | – | – | – | 37.5 ± 2.1% | – | –
4 | CCN(CC)C(=O)N1CCN(c2nc(-c3ccccc3)cs2)CC1 [drawing 12] | – | – | – | – | – | – | – | – | – | – | – | – | – | – | – | 21.0% | –
5 | CCN(CC)C(=O)N1CCN(c2nccs2)CC1 [drawing 13] | – | – | – | – | – | – | – | – | – | – | – | – | – | – | – | 25.8% | –
6 | c1ccc([C@H]2CN3CCSC3=N2)cc1 [Levamisole hydrochloride, reference compound] | 54.6 ± 11.3% | 61.7 ± 9.8% | 73.3 ± 14.6% | 8.1 mm | 16.8 mm | 23.1 mm | 27.4 mm | 25.5 mm | 6 | 6 | 6 | 6 | 6 | 5 | 33.9 ± 3.0% | 53.3% | antitumor action (in words) (Sarcoma 180 [2]; 100 mg/Kg oral, repeatedly): no substantial antitumor action was observed; estimated LD50 value [4]: 150 to 200 mg/kg; antitumor activity (in words) (Sarcoma 180 [5]): no substantial antitumor activity; N: number of living mice, 0 weeks (Sarcoma 180 [5]; 0 weeks, group of 6): 6; D: average diameter (mm) of tumor, 2 weeks (Sarcoma 180 [5]; 2 weeks): 3.6 mm; N: number of living mice, 2 weeks (Sarcoma 180 [5]; 2 weeks, group of 6): 6; D: average diameter (mm) of tumor, 4 weeks (Sarcoma 180 [5]; 4 weeks): 14.1 mm; N: number of living mice, 4 weeks (Sarcoma 180 [5]; 4 weeks, group of 6): 6; D: average diameter (mm) of tumor, 6 weeks (Sarcoma 180 [5]; 6 weeks): 22.2 mm; N: number of living mice, 6 weeks (Sarcoma 180 [5]; 6 weeks, group of 6): 6; D: average diameter (mm) of tumor, 8 weeks (Sarcoma 180 [5]; 8 weeks): 26.8 mm; N: number of living mice, 8 weeks (Sarcoma 180 [5]; 8 weeks, group of 6): 3; D: average diameter (mm) of tumor, 10 weeks (Sarcoma 180 [5]; 10 weeks): 23.8 mm; N: number of living mice, 10 weeks (Sarcoma 180 [5]; 10 weeks, group of 6): 2; inhibition of take-in of 3H-thymidine by EL-4 cells / macrophage activation (in words) (EL-4 leukemic cells): does not exhibit such action; inhibition of take-in of 3H-thymidine by EL-4 cells / macrophage activation (in words) (EL-4 leukemic cells; listed as Levamisole): hardly exhibits such action
